Reference: patent US9828375B2, “4-position substituted pyrazolopyrimidine derivative, and use thereof in drug preparation” (Guangxi Wuzhou Pharmaceuticals (Group) Co., Ltd., priority 2012, dated 2017)
Where two headings read alike, the source gives them in different places.

Legend:
SRC = SRC (Homo sapiens, UniProt P12931); assay: Kinase inhibition activity test, isotope labeling: SRC; format: biochemical; details: ATP 45 μM; read-out: SRC IC50 value (inhibitory activity value)
Description: The purpose of this experiment was to test the inhibitory activity of the compound of the invention for in vitro kinase with the isotope labeling method (the γ phosphate group on ATP was labeled). In this experiment, the in vitro activity inhibition of such kinases as FLT3, VEGFR2, FLT1, FLT4, RET, c-RAF, B-RAF, c-KIT, PDGFα, PDGFβ, FGFR2, FGFR1, EphA2, EphB2, SRC, ABL, ALK and Met was tested respectively. Staurosporine was reference molecule (or referred to as positive control). The kinase inhibition activity of the test compound was expressed by half-inhibitory concentration (IC50) or the kinase activity inhibition rate of the test compound at a concentration of 10 μM. The IC50 value could be obtained by calculating the kinase activity inhibition rate of the test compound at different concentrations.
20 mM 3-(N-morpholinyl)propanesulfonic acid (MOPS); 1 mM ethylenediaminetetraacetic acid (EDTA), 0.01% Brij 35 (Brij-35), 5% glycerol, 0.1% mercaptoethanol, 1 mg/mL bovine serum albumin (BSA), 10 mM manganous dichloride solution (MnCl2), 0.1 mg/mL glutamic acid/tyrosine (4:1) polypeptide (poly(Glu, Tyr)4:1), 50 μM EAIYAAPFAKKK (substrate of FLT3), 0.33 mg/mL myelin basic protein (substrate of VEGFR2), 250 μM KKKSPGEYVNIEFG (substrate of FLT1(h)), 500 μM GGEEEEYFELVKKKK (substrate of FLT4(h)), 250 μM KKKSPGEYVNIEFG (substrate of RET), 0.66 mg/mL myelin basic protein (substrate of C-RAF), 250 μM GGMEDIYFEFMGGKKK (substrate of c-Kit), 250 μM GGMEDIYFEFMGGKKK (substrate of PDGFα), 250 μM KKKSPGEYVNIEFG (substrate of FGFR1), […] GGEEEEYFELVKKKK (substrate of SRC), 50 μM EAIYAAPFAKKK (substrate of ABL), 250 μM KKKSPGEYVNIEFG (substrate of ALK), 250 μM KKKSPGEYVNIEFG (substrate of Met(h)), 10 mM magnesium acetate and γ-^33 P-ATP solution, stop buffer (3% phosphate buffer), washing buffer (75 mM phosphate solution), methanol, Filtermat A membrane, FLT3, VEGFR2, FLT3, VEGFR2, FLT1, FLT4, RET, c-RAF, B-RAF, c-KIT, PDGFRα, PDGFRβ, FGFR2, FGFR1, EphA2, EphB2, SRC, ABL, ALK, Met and other kinases, and the test compounds.
Buffers (8 mM MOPS with pH value of 7.0, 0.2 mM EDTA and 10 mM MnCl2), (5-10 mU) kinases to be tested (FLT3, VEGFR2, FLT1, FLT4, RET, c-RAF, B-RAF, c-KIT, PDGFRα, PDGFRβ, FGFR2, FGFR1, EphA2, EphB2, SRC, ABL, ALK and Met), substrates of kinases to be tested (refer to experimental materials), 10 mM magnesium acetate and γ-^33 P-ATP solution, and test compounds at different concentrations were added to a reaction tube orderly. […] Reaction was terminated with 5 μL 3% phosphate buffer finally, and 10 μL reaction solution was titrated to the Filtermat A membrane; solution was washed for 3 times with 75 mM phosphate solution with each time lasting 5 minutes, and then washed once with methanol. […]

[1] = system: inter segmental blood vessels of transgenic zebrafish (FLK1-GFP); assay: Angiogenesis inhibition activity test in transgenic zebrafish (FLK1-GFP); format: in vivo; details: concentration of 1 ug/mL, compared with the control group
Description: The new blood vessel inhibition activity of the test compounds was expressed by the inhibition degree of the test compounds for the inter segmental blood vessels of zebrafish at concentrations of 10 ug/mL, 3 ug/mL and 1 ug/mL.
Acquisition of zebrafish embryos: The zebrafish used by this laboratory was fluorescent transgenic zebrafish (FLK1: GFP). Refer to Westerfield method for breeding and cultivation of zebrafish. The day before spawns were obtained, male and female zebrafish were paired at the ratio of 1:1. On the second day, the male and female zebrafish naturally mated and spawned at a temperature of about 28° C. under sufficient illumination. Enough zebrafish embryos were collected, washed, placed into embryo culture media, and put into a 28° C. incubator for culture. The survival of embryos was identified by morphological and phylogenetic standards, and dead embryos were white and taken out timely to prevent deterioration of water quality. […]
Result observation: Thirty one hours after the zebrafish embryos were fertilized, spawns were taken out and hatched zebrafish was peeled off; and then the hatched zebrafish was put onto slide, 1‰ tricaine solution was added to narcotize the fish body, and 1.5% methylcellulose was used to fix the fish body; and the inter segmental vessels (ISV) were observed, counted and photographed under a fluorescence microscope. […]

[2] = system: human leukemia cell line MV4-11; details: for in vivo tumor growth inhibition effect: oral intragastric q.d., MV4-11 tumors 400-500 mm^3 at start; for inhibition effect compared with positive control sorafenib: sorafenib 3 mg/kg q.d., MV4-11 model
Description: The cell line used was human leukemia cell line MV4-11. The drug (Sorafenib) undergoing anti-leukemia clinical trial was used as the positive control.
NOD-SCID mice at age of 6 to 8 weeks were used, and MV4-11 cells were inoculated at the subcutaneous posterior ribs of the mice at a concentration of 1×10^7/0.1 mL/mouse; after the tumors grew to 400-500 mm^3 (for about 20 days), mice (n=6) were grouped and subject to oral intragastric administration.
Observation targets: Mouse weight and long and short diameters of tumor were measured every 3 days, and tumor volume (length×width^2×0.52) was calculated to observe for diarrhea, convulsion, rash, significant weight loss and other reactions.

Chain of SRC (P12931 whole entry): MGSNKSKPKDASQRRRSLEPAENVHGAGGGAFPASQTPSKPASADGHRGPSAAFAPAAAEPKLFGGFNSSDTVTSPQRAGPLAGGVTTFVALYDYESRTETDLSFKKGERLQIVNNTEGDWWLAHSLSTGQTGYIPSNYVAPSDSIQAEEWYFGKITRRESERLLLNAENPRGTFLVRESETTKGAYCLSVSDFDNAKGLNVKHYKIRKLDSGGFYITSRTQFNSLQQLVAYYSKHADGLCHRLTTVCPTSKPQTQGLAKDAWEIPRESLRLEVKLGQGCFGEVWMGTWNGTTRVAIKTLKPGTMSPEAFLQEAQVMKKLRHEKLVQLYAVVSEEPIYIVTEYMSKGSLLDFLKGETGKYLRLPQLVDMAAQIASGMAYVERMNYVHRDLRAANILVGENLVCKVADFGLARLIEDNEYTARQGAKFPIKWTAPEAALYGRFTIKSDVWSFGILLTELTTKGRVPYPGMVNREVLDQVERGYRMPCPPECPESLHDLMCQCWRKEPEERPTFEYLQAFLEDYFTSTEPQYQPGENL

| IC50 (SRC) | SMILES | angiogenesis inhibition for FLK1 transgenic zebrafish [1] | in vivo tumor growth inhibition effect ([2]; daily dose of 1 mg/kg) | in vivo tumor growth inhibition effect ([2]; daily dose of 3 mg/kg or above) | inhibition effect compared with positive control sorafenib [2] |
| --- | --- | --- | --- | --- | --- |
| < 10 µM | CC(C)(C)c1cc(NC(=O)Nc2ccc(Oc3ncnc4[nH]ncc34)c(F)c2)no1 [4a-31] | inhibit angiogenesis of zebrafish very well | obviously inhibit tumor growth | extinct tumor completely | superior to the positive control (sorafenib) |
| < 10 µM | O=C(Nc1ccc(Oc2ncnc3[nH]ncc23)cc1)Nc1ccc(Cl)c(C(F)(F)F)c1 [4a-2] |  |  | obviously inhibit tumor growth or extinct tumor completely | superior to the positive control (sorafenib) |
| < 10 µM | CC(C)(C)c1cc(NC(=O)Nc2ccc(Oc3ncnc4[nH]ncc34)cc2)on1 [4a-25] |  |  |  |  |

| SMILES | IC50 (SRC) | angiogenesis inhibition for FLK1 transgenic zebrafish [1] | in vivo tumor growth inhibition effect ([2]; daily dose of 1 mg/kg) | in vivo tumor growth inhibition effect ([2]; daily dose of 3 mg/kg or above) | inhibition effect compared with positive control sorafenib [2] |
| --- | --- | --- | --- | --- | --- |
| O=C(Nc1ccc(Oc2ncnc3[nH]ncc23)cc1)Nc1cccc(C(F)(F)F)c1 [4a-6] | 3.01 µM | inhibit angiogenesis of zebrafish very well |  |  |  |
